Laboratory results from US9980972B2, “Rho kinase inhibitors for use in treating familial amyotrophic lateral sclerosis” (GEORG-AUGUST-UNIVERSITÄT GÖTTINGEN STIFTUNG ÖFFENTLICHEN …, priority 2012, dated 2018).

Columns and labels:
[1] = system: SOD1 G93A mouse model of ALS; experiment: Disease onset by neurological score in SOD1 G93A mice; type: in vivo; settings: treated from d50 or from d80, differentiated by gender
Protocol: Neurological Score. Neurological scores were assessed every three days for each mouse from 50 days of age. The neurological score employed a scale of 0 to 4 that had been developed in ALS mouse trials before. Score criteria used to assign each score level were: • 4 Full extension of hind legs away from lateral midline when mouse is suspended by its tail, and mouse can hold this for 2 seconds, suspended 2-3 times. • 3 Collapse or partial collapse of leg extension towards lateral midline (weakness) or trembling of hind legs during tail suspension. • 2 Toes curl under at least twice during walking of 10 cm, or any part of foot is dragging along cage bottom/table. • 1 Rigid paralysis or minimal joint movement, foot not being used for forward motion*. * If score criterion 2 is reached, food pellets are left on bedding and water is additionally placed in a well on the bedding. • 0 Mouse cannot right itself within 30 seconds from either side.
Onset of disease is defined as reaching neurological score 3 (collapse or partial collapse of leg extension towards lateral midline (weakness) or trembling of hind legs during tail suspension).

[2] = system: spinal cord astroglia of SOD1 G93A mice; experiment: GFAP positive astrocytes in ventral horn of lumbar spinal cord (astrogliosis); type: in vivo, mouse; settings: for numbers of GFAP positive astroglia: time of death, presymptomatic
Protocol: After deep anaesthesia, mice were transcardially perfused with PBS solution followed by 4% paraformaldehyde. Spinal cords, sciatic nerves and gastrocnemius muscles were removed. Spinal cords and gastrocnemius muscles were then postfixed for 2 h in 4% paraformaldehyde. Thereafter, the tissue was dehydrated in 30% sucrose overnight and kept at −20° C. until further processing. Coronal sections of the lumbar spinal cord (L3-L6) (20 μm) and horizontal sections of the tibial muscle (35 μm) were prepared using a Leica Kryostat and collected on gelatine-coated glass slides.
Spinal cord sections selected for immunohistochemical processing were first rehydrated. Then antigen-retrieval was performed for 4 h in TBS at 60° C. for later GFAP or Iba1 labeling and for 30 min in sodium citrate (pH 9.0) at 80° C. for later ChAT labeling. After washing for one time in PBS the sections were incubated at room temperature either in PBS and 10% of normal goat serum for later GFAP labeling or in PBS and 5% normal donkey serum for later ChAT labeling to block unspecific binding. The primary antibodies (anti-ChAT 1:100, AB144 P, Millipore; anti-GFAP 1:200, DAKO; anti-Iba1 1:500, WAKO, Osaka, Japan) were applied at 4° C. for one night for GFAP and for three nights for ChAT. The secondary antibodies (Cy3 anti-goat or Cy2/Dylight anti rabbit; both Dianova) were applied on separate sections 1:300 for 1 h at room temperature. Then a nuclear counter-stain with DAPI (4,6-diamidino-2-phenylindole) (Sigma-Aldrich) was performed before mounting in Moviol (Hoechst, Frankfurt, Germany).
Astrogliosis and microgliosis were evaluated by the quantification of GFAP or Iba1 positive cells in the ventral horn of lumbar spinal cord sections, respectively. Again, the area of the ventral horn was defined and GFAP or Iba1 positive cells were manually counted. In the d50 treatment group analyzed at death, a total of 20 mice was counted from the vehicle (3 male, 3 female), Fas30 (3 male, 3 female), Fas100 (3 male, 3 female) and wildtype (1 male, 1 female) group. In the d50 treatment group analyzed at d100, a total of 20 mice was counted from the vehicle (3 male, 3 female), Fas30 (3 male, 3 female), Fas100 (3 male, 3 female) and wildtype (1 male, 1 female) group.
Reactive astrogliosis represents another parameter in the evaluation of histologic manifestation of ALS disease. In human ALS patients, the clinical progression of this neurodegenerative disease seems to be associated with changes in astrocytic cell infiltration in the spinal cord. Therefore, the inventors evaluated the extent of astrogliosis in the lumbar spinal cord by counting the number of GFAP positive astroglial cells in the ventral horn and normalized values to area (FIG. 12).

Q: What does the source list for `O=S(=O)(c1cccc2cnccc12)N1CCCNCC1` [Fasudil, 1-(5-isoquinolinesulfonyl)homopiperazine]?
A: onset of disease (neurological score 3) [1]: no statistically significant difference; GFAP cell number ([2]; day 100, female, presymptomatic Fas30 vs transgenic vehicle): significantly reduced; numbers of GFAP positive astroglia ([2]; Fas30 female, vehicle female 28.91±4.7): 31.6±5.9 per 0.2 mm^2; numbers of GFAP positive astroglia ([2]; Fas30 male, vehicle male 31.3±4.7): 38.2±4.4 per 0.2 mm^2; numbers of GFAP positive astroglia ([2]; Fas100 female, vehicle female 28.91±4.7): 27.9±4.0 per 0.2 mm^2; numbers of GFAP positive astroglia ([2]; Fas100 male, vehicle male 31.3±4.7): 29.24±4.5 per 0.2 mm^2
